The structures appear in SMILES notation. Active and inactive are the calls of the source. No cut-off for these calls is given here.

In assay [1] the target is Beta-galactosidase (Escherichia coli K-12) (UniProt P00722). Description: Inhibition of Escherichia coli beta galactosidase at 1 mM.
In assay [2] the test system is Aspergillus niger. Description: Inhibition of Aspergillus niger amyloglucosidase at 1 mM.
The target in assay [3] is T1, Tissue alpha-L-fucosidase (Bos taurus) (UniProt Q2KIM0).
T1 sequence (whole entry): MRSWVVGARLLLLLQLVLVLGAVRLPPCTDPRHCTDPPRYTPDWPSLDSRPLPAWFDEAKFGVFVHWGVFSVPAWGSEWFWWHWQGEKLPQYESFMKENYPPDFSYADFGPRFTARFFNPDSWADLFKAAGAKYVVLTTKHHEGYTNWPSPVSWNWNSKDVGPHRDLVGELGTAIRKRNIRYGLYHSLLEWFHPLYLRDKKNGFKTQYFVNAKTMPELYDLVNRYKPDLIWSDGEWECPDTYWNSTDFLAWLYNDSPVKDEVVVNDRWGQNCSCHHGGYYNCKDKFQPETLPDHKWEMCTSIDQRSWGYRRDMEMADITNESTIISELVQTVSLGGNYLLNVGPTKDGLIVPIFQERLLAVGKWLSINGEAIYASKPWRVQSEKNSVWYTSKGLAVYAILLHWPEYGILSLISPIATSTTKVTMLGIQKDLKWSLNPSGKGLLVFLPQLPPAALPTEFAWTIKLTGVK
Description: Inhibition of bovine kidney alpha L-fucosidase at 1 mM.

Assay [4] relates to Saccharomyces cerevisiae. The assay is described as follows: Inhibition of yeast maltase at 1 mM.
For assay [5], the system named is Prunus dulcis. Description: Inhibition of almond beta glucosidase at 1 mM.
Assay [6] addresses T2, Tissue alpha-L-fucosidase (Bos taurus, UniProt Q2KIM0).
T2 sequence (Q2KIM0 whole entry): T1 sequence (whole entry)
The assay is described as follows: Inhibition of bovine kidney alpha L-fucosidase.

The test system of assay [7] is Prunus dulcis. Description: Inhibition of almond beta glucosidase at 0.1 mM.
For assay [8], the system named is Aspergillus niger. Description: Inhibition of Aspergillus niger amyloglucosidase at 0.1 mM.
The target of assay [9] is T1, Tissue alpha-L-fucosidase (Bos taurus). Description: Inhibition of bovine kidney alpha L-fucosidase at 0.1 mM.
Assay [10] concerns the target Beta-galactosidase (Escherichia coli K-12) (UniProt P00722). Description: Inhibition of Escherichia coli beta galactosidase at 0.1 mM.
Assay [11] concerns Saccharomyces cerevisiae. The assay is described as follows: Inhibition of yeast maltase at 0.1 mM.

Beta-galactosidase (Escherichia coli K-12), sequence (P00722 whole entry): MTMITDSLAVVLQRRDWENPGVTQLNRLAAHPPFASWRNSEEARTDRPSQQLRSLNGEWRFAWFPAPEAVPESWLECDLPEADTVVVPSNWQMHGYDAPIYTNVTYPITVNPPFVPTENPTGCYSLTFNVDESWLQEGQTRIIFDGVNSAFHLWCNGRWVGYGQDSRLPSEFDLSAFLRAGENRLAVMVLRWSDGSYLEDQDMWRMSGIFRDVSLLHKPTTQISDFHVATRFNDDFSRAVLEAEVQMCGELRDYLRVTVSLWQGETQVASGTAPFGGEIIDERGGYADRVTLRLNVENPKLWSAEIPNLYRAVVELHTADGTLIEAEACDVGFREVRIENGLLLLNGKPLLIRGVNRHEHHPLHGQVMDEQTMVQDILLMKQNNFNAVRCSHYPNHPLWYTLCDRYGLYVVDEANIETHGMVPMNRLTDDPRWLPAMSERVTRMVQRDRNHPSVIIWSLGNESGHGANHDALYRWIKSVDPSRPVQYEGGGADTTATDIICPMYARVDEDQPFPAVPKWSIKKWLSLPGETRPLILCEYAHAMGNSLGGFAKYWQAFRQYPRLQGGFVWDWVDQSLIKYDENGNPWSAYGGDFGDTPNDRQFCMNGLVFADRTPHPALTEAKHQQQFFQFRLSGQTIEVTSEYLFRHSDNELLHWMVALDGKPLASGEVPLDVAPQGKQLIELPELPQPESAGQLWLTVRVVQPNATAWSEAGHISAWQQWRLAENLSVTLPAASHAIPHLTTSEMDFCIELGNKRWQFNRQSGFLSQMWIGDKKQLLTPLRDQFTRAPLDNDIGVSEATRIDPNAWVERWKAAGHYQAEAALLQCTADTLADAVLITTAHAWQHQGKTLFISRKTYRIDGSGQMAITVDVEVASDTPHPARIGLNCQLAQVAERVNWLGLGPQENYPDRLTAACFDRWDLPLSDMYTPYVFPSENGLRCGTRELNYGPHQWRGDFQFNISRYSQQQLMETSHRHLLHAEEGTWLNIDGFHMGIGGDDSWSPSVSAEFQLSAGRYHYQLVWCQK

The term inhibition denotes the share of the control response that was lost under treatment. Turning to `C[C@H]1[C@@H](O)[C@@H](O)[C@H](CO)NN1C(=O)OCc1ccccc1`, the inhibition entry (in assay [1]; in the assay on Aspergillus niger [2]; with Saccharomyces cerevisiae [4]; with Prunus dulcis [5]) was “inactive” each time. The compound also yielded an inhibition in assay [3] of 35%.

In the case of `C[C@H]1NN[C@@H](CNC(=O)c2ccc(-c3ccccc3)cc2)[C@H](O)[C@@H]1O`, the inhibition result (in [1]; with Aspergillus niger [2]; in the assay on Saccharomyces cerevisiae [4]; in the assay with Prunus dulcis [5]) was “inactive” in each case. This compound registered an inhibition in assay [3] of 53%.

For orientation: IC50 means the concentration at which inhibition is half-maximal. Higher therefore signals weaker potency. By Ki is commonly meant a dissociation constant, usually derived from enzyme kinetics or from competition with a known ligand. Read a high Ki as a looser hold on the target. Consider `C[C@@H]1NN[C@@H](CO)[C@H](O)[C@@H]1O`, for which the inhibition result (in [1]; in the assay on Aspergillus niger [2]; with Saccharomyces cerevisiae [4]; with Prunus dulcis [5]) was “inactive” throughout. This compound also displayed an IC50 in assay [6] of 30 µM. Further, the affinity in [6] corresponds to a Ki of 4.2 µM. In assay [3], this compound gave an inhibition of 97%.

Turning to `C[C@H]1[C@@H](O)[C@@H](O)[C@H](CNC(=O)[C@@H](N)CCCCN)NN1C(=O)OCc1ccccc1`, the inhibition entry (in assay [1]; with Aspergillus niger [2]; with Saccharomyces cerevisiae [4]; in the assay on Prunus dulcis [5]) was “inactive” each time. The inhibition in [3] stood at 77%.

In the case of `C[C@H]1NN[C@@H](CNC(=O)[C@@H](N)Cc2ccccc2)[C@H](O)[C@@H]1O`, the inhibition result (in [1]; with Aspergillus niger [2]; in assay [3]; in the assay with Saccharomyces cerevisiae [4]; with Prunus dulcis [5]) was “inactive” in each case.

As for `CCCCCCCCCCCC(=O)NC[C@@H]1NN[C@H](C)[C@@H](O)[C@H]1O`, the inhibition result (in [1]; with Saccharomyces cerevisiae [4]; in the assay on Prunus dulcis [5]) was “inactive” in each case. The inhibition stood at 24% with Aspergillus niger [2] and 40% in assay [3].

Turning to `C[C@@H]1[C@@H](O)[C@@H](O)[C@H](CO)NN1C(=O)OCc1ccccc1`, the inhibition entry (in assay [1]; in the assay on Aspergillus niger [2]; in the assay on Saccharomyces cerevisiae [4]; with Prunus dulcis [5]) was “inactive” throughout. The compound further showed an inhibition in [3] of 27%.

For the compound `C[C@@H]1[C@@H](O)[C@@H](O)[C@H](CNC(=O)c2ccc(-c3ccccc3)cc2)NN1C(=O)OCc1ccccc1`, the inhibition result (with Prunus dulcis [7]; in the assay with Aspergillus niger [8]; in assay [9]; in [10]; in the assay with Saccharomyces cerevisiae [11]) was “inactive” throughout.

Turning to `C[C@H]1NN[C@@H](CO)[C@H](O)[C@@H]1O`, the inhibition result (in [1]; in the assay on Aspergillus niger [2]; with Saccharomyces cerevisiae [4]) was “inactive” each time. Further, the inhibition is 17% in assay [3] and 23% in the assay on Prunus dulcis [5].

For `CCCCCCCCCCCC(=O)NC[C@@H]1NN(C(=O)OCc2ccccc2)[C@@H](C)[C@@H](O)[C@H]1O`, the inhibition entry (in assay [1]; in the assay on Aspergillus niger [2]; in the assay with Saccharomyces cerevisiae [4]; with Prunus dulcis [5]) was “inactive” in each case. In assay [9], this compound displayed an inhibition of 5%.

With `C[C@@H]1[C@@H](O)[C@@H](O)[C@H](CN)NN1C(=O)OCc1ccccc1`, the inhibition result (in [1]; in the assay with Aspergillus niger [2]; with Saccharomyces cerevisiae [4]; in the assay on Prunus dulcis [5]) was “inactive” each time. Also, the inhibition in assay [3] worked out at 54%.

Turning to `C[C@@H]1NN[C@@H](CNC(=O)[C@@H](N)Cc2ccccc2)[C@H](O)[C@@H]1O`, the inhibition entry (in [1]; in the assay on Aspergillus niger [2]; in the assay with Saccharomyces cerevisiae [4]; with Prunus dulcis [5]) was “inactive” each time. In assay [6], this compound came in with a concentration for half-maximal inhibition (IC50) of 283 µM. The same compound came in with an inhibition in assay [3] of 82%.

With `C[C@@H]1NN[C@@H](CN)[C@H](O)[C@@H]1O`, the inhibition entry (in [1]; in the assay with Aspergillus niger [2]; in the assay with Saccharomyces cerevisiae [4]; in the assay on Prunus dulcis [5]) was “inactive” throughout. This compound showed an inhibition in [3] of 44%.

As for `C[C@H]1NN[C@@H](CN)[C@H](O)[C@@H]1O`, the inhibition result (in [1]; in the assay on Aspergillus niger [2]; in the assay on Saccharomyces cerevisiae [4]; in the assay with Prunus dulcis [5]) was “inactive” in each case. Besides, the inhibition in [3] was determined as 53%.

Turning to `C[C@H]1[C@@H](O)[C@@H](O)[C@H](CNC(=O)[C@@H](N)Cc2ccccc2)NN1C(=O)OCc1ccccc1`, the inhibition result (in assay [1]; with Aspergillus niger [2]; in the assay with Saccharomyces cerevisiae [4]; with Prunus dulcis [5]) was “inactive” in each case. Also, the inhibition in [3] was found to be 65%.

In the case of `C[C@@H]1NN[C@@H](CNC(=O)[C@@H](N)CCCCN)[C@H](O)[C@@H]1O`, the inhibition entry (in assay [1]; in the assay on Aspergillus niger [2]; in the assay with Saccharomyces cerevisiae [4]; with Prunus dulcis [5]) was “inactive” each time. In assay [6], this compound came in with an IC50 of 535 µM. Further, the inhibition in assay [3] came to 77%.

For the compound `CCCCCCCCCCCC(=O)NC[C@@H]1NN[C@@H](C)[C@@H](O)[C@H]1O`, the inhibition entry (in [1]; in the assay with Aspergillus niger [2]; with Prunus dulcis [5]) was “inactive” each time. In addition, the inhibition amounted to 70% in assay [3] and 51% with Saccharomyces cerevisiae [4].

Regarding `C[C@H]1[C@@H](O)[C@@H](O)[C@H](CN)NN1C(=O)OCc1ccccc1`, the results for the inhibition in assay [1] and in assay [3] were 32% and 92%, respectively. The inhibition result in the assay with Aspergillus niger [2], with Saccharomyces cerevisiae [4] and in the assay with Prunus dulcis [5] was “inactive” throughout. The IC50 in [6] was determined as 117 µM.

Take `C[C@@H]1[C@@H](O)[C@@H](O)[C@H](CNC(=O)[C@@H](N)Cc2ccccc2)NN1C(=O)OCc1ccccc1`: the inhibition result (in assay [1]; in the assay with Aspergillus niger [2]; with Saccharomyces cerevisiae [4]; with Prunus dulcis [5]) was “inactive” throughout. The same compound registered an inhibition in assay [3] of 16%.

For `C[C@@H]1NN[C@@H](CNC(=O)c2ccc(-c3ccccc3)cc2)[C@H](O)[C@@H]1O`, the inhibition result (in the assay on Prunus dulcis [7]; in assay [10]; in the assay on Saccharomyces cerevisiae [11]) was “inactive” each time. Besides, the inhibition in the assay on Aspergillus niger [8] is 21%; in assay [9], 85%. In [6], this compound had an IC50 of 8.6 µM. Besides, in assay [6], affinity was put at a Ki of 1 µM.
